# Measured values: patent US12473295B2, “Substituted straight chain spiro derivatives” (Janssen Pharmaceutica NV, priority 2019, dated 2025)
# Counter-ions that a name gives are not always drawn.
# Experiments:
# [1] = biological target: menin/MLL (terbium chelate-labeled menin, FITC-MBM1 peptide) (Homo sapiens (Human), UniProt O00255); assay: Menin/MLL homogenous time-resolved fluorescence (HTRF) assay; assay type: binding; details: HTRF-30 min incubation IC50, 30 min incubation;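 note: IC50 from percent inhibition of HTRF signal, normalized between wells without competitor and wells with a saturating competitor that displaces FITC-MBM1 from His-tagged menin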
# Chain of menin/MLL (terbium chelate-labeled menin, FITC-MBM1 peptide) (O00255 other isoform, or with tags, fused parts or gaps): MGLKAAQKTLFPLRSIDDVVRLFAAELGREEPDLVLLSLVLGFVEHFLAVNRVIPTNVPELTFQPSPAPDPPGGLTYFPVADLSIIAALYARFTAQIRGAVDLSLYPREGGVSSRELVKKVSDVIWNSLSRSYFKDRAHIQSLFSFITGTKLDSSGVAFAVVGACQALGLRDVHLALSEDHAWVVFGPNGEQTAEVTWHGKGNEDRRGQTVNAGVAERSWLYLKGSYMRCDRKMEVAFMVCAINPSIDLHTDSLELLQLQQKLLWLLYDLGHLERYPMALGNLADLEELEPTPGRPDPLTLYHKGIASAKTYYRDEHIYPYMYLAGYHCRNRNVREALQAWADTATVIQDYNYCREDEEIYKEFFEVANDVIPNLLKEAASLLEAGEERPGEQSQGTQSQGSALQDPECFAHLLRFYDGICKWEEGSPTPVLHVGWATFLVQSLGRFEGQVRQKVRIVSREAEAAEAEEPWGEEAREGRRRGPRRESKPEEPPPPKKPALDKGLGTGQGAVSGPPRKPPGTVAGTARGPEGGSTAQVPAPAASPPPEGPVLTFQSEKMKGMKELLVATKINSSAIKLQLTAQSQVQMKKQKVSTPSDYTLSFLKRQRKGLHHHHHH
# [2] = system: MOLM14 cells; assay: Proliferation assay (spheroid growth, 8 days), MOLM14; assay type: cell-based, human; details: Homo sapiens, MOLM-14, […], MOLM14, 8 days; read-out: spheroid assay_OneTime MOLM14 IC50;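 note: spheroid size read as confluence by live-cell imaging, compounds added at a range of concentrations with 0.3% DMSO, DMSO-treated wells = 0%, highest reference dose = low control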
# [3] = system: OCI-AML3 cells; assay: Proliferation assay (spheroid growth, 8 days), OCI-AML3; assay type: cell-based, human; details: Homo sapiens, OCI-AML-3, […], OCI-AML3, 8 days
# Summary of the method: (§1)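 Cells were seeded at 200 (MOLM14, OCI-AML3) or 300 (KO-52) per well in ultra-low attachment round-bottom plates with compounds at several concentrations, 0.3% DMSO, and grown 8 days at 37° C. Spheroid confluence was imaged on day 8; IC50 came from a variable-slope fit normalized to DMSO and high-dose reference compound.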
# [4] = system: KO-52 cells; assay: Proliferation assay (spheroid growth, 8 days), KO-52 control cell line; assay type: cell-based, human; details: Homo sapiens, […], read-out: spheroid assay_OneTime KO-52 IC50
# Summary of the method: as §1
# [5] = system: MEIS1 mRNA; assay: MEIS1 mRNA expression assay (Quantigene Singleplex) in MOLM14 cells; assay type: cell-based, human; details: Homo sapiens, MOLM-14, 48 h, 48 hours incubation;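 note: MEIS1 transcript levels read by probe hybridization and normalized to RPL28 mRNA, with IC50 fitted to fold changes across a rising compound concentration series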
# [6] = biological target: hERG (Homo sapiens (Human), UniProt Q12809); assay: Effect on membrane potassium current IKr in hERG-transfected HEK293 cells, Protocol 2 (SyncroPatch 384PE); assay type: cell-based; details: Protocol 2, hERG-transfected HEK293 cells
# Chain of hERG (Q12809 whole entry): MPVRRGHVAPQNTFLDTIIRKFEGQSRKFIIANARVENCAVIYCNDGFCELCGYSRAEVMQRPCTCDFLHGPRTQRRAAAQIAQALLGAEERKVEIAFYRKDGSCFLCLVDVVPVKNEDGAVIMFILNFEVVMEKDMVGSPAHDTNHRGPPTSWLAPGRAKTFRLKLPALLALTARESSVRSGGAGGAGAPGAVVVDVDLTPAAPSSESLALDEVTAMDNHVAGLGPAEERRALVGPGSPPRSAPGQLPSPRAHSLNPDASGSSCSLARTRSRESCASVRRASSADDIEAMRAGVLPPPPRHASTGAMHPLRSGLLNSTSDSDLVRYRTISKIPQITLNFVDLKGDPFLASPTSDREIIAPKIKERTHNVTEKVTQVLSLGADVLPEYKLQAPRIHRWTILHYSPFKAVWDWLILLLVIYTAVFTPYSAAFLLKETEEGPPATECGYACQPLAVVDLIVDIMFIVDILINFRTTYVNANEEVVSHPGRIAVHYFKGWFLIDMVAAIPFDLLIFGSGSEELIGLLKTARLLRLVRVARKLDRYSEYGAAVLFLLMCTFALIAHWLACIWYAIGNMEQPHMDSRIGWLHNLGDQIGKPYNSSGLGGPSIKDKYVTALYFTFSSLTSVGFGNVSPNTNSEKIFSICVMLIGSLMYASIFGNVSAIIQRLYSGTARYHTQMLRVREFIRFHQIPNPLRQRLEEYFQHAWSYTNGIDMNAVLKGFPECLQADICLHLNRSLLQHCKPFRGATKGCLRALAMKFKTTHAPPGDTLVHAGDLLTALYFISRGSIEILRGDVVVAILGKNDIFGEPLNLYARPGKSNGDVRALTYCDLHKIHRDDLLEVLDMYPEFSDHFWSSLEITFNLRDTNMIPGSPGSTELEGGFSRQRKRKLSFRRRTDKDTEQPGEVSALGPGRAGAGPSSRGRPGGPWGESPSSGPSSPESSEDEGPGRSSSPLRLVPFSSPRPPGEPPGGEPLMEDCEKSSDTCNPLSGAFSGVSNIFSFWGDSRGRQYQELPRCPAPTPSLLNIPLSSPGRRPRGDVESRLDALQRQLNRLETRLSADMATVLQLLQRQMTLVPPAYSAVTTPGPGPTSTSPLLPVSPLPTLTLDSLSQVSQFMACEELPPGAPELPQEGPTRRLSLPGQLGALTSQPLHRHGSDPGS
# Experimental: 8) Effect on the Membrane Potassium Current IKr in hERG Transfected Cell Lines
# The compound, vehicle control and positive control were tested on hERG-transfected HEK293 cells. A human embryonic kidney cell line (HEK293) with a stable transfection of hERG (Zhou Z et al. Biophysical Journal 1998. 74, 230-241; McDonald T. V. et al, Nature 1997. 388, 289-292) was used (University of Wisconsin, Madison, USA). The cells were kept in culture in MEM (Minimum Essential Medium, Gibco) which was supplemented with (amounts indicated added to 500 ml MEM): 5 ml L-Glutamine-Penicillin-Streptomycin (Sigma), 50 ml Fetal Bovine serum (Bio-Whittaker), 5 ml Non-essential Amino Acids 100× (Gibco), 5 ml sodium pyruvate 100 mM (Gibco) and 4 ml geneticin 50 mg/ml (Gibco) using T175 flasks. The cells were incubated at 37° C. in 5% CO2 atmosphere (in air).
# Cell Harvesting for Assay
# Cells were harvested as described below using Accumax™ (Sigma) as the dissociating reagent. Cells were then resuspended in a mixture of 33% DMEM/F12 (Dulbecco's Modified Eagle Medium/Nutrient Mixture F-12—Sigma) media/67% extracellular physiological solution.
# The flasks were washed twice carefully with ˜5-10 ml phosphate buffered saline (PBS) (Gibco™) containing 2 mM EDTA (Ethylenediaminetetraacetic acid) (Sigma). The cells were dissociated using ˜3 ml of Accumax™ (cell detachment solution) and incubated for ˜5 to 10 min. at 37° C. Cold external physiological solution (2-5 ml) was added and the flasks are incubated at ˜4° C. for 5-10 min. Then, the cell suspension in each flask was gently dissociated with a 5 ml pipette. The cell suspension was transferred to a low binding petri-dish (˜[…]). Each flask was washed with ˜additional 5 ml cold external physiological solution and this solution was also added to the petri-dish. The petri-dish was then incubated for another 5 to 10 minutes at ˜4° C. After another gentle dissociation of the cell suspension in the petri dish, the cells were transferred to a reservoir kept on an orbital shaker at 200 rpm at 16° C. Before experiments were performed, the cells recovered for ˜20 min.
# A 10 mM solution of the compound was used and plated in a 384 well plate. Aliquots of the stock solutions are diluted with the recording solution (see section 3) using automated liquid handling (Biomek FXP; final DMSO concentration: 0.03 to 0.3%). A standard range of screening concentrations was used ranging from 1 μM to 30 μM.
# A positive control (E-4031) was included within each run to evaluate the sensitivity of the assay.
# External and Intracellular Solutions Used in the Experiments
# In the table below the composition of the intracellular and external buffer solutions is shown in [mM] (“NMDG” means N-methyl-D-glucamine)
# The whole cell patch clamp technique on transfected cells allows the study of ion-channels with no—or limited interference from other ion-channels. The effects of the compounds on the hERG current were studied with an automated planar patch clamp system, SyncroPatch 384PE (Obergrussberger et al, Journal of Laboratory Automation 2016. 21 (6). 779-793). All cells were recorded in the whole cell mode of the patch clamp technique. The module is incorporated in a liquid handling pipetting robot system, Biomek FXP, for application of cells and compounds, vehicle control and positive control.
# The different concentrations of the compounds were applied in two cumulatively increasing concentrations for the compounds (1 μM and 10 μM, and 3 μM and 30 μM, respectively). The hERG current was determined as the maximal tail current at −30 mV and percent inhibition upon compound or vehicle and positive control addition was reported.
# After cells are caught onto the individual holes of the recording chips using the chip fill solution, the seal is increased with the seal enhancer solution (increased [Ca^2+]; then the cells were washed twice with recording solution before using a pressure protocol to go into the whole cell mode. […]
IC50 [1] [nM],IC50 [2] [nM],IC50 [3] [nM],IC50 [5] [nM],Compound,IC50 [4] [nM],IC50 [6] [nM]
0.15,46,130,76,"CCN(C(=O)c1cc(F)ccc1Oc1nncnc1N1CCC2(C1)CN([C@H](CCNCCOC)C(C)C)C2)C(C)C (single isomer, unassigned) [Compound 227, (*R)—N-ethyl-5-fluoro-N-isopropyl-2-((5(2-(1-((2-methoxyethyl)amino)-4-methylpentan-3-yl)-2,6-diazaspiro[3.4]octan-6-yl)-1,2,4-triazin-6-yl)oxy)benzamide fumarate]",> 15000,> 30200
–,26,150,–,"O=C(O)/C=C/C(=O)O.[2H]C([2H])(COC)N(C)CCC[C@H](C(C)C)N1CC2(CCN(c3ncnnc3Oc3ccc(F)cc3C(=O)N(CC)C(C)C)C2)C1 [Compound 233, (R)-N-ethyl-5-fluoro-N-isopropyl-2-((5-(2-(6-((2-methoxyethyl-1,1-d2)(methyl)amino)-2-methylhexan-3-yl)-2,6-diazaspiro[3.4]octan-6-yl)-1,2,4-triazin-6-yl)oxy)benzamide fumarate]",5030,> 30200
0.26,170,1070,230,"CCN(C(=O)c1cc(F)ccc1Oc1nncnc1N1CCC2(C1)CN([C@H](C[C@H](C)CN(C)CCOC)C(C)C)C2)C(C)C (single isomer, unassigned) [Compound 242]",> 15000,> 30200
0.4,180,990,200,"CCN(C(=O)c1cc(F)ccc1Oc1nncnc1N1CCC2(C1)CN([C@H](CCN(C)C)C(C)C)C2)C(C)C (single isomer, unassigned) [Compound 223, (*R)-2-((5-(2-(1-(dimethylamino)-4-methylpentan-3-yl)-2,6-diazaspiro[3.4]octan-6-yl)-1,2,4-triazin-6-yl)oxy)-N-ethyl-5-fluoro-N-isopropylbenzamide fumarate]",> 15000,> 30200

# Continued, compound first:
Compound,IC50 [1] [nM],IC50 [2] [nM],IC50 [3] [nM],IC50 [5] [nM],IC50 [4] [nM],IC50 [6] [nM]
"CC(C)[C@H](CCCN(C)CCC(=O)N(C)C)N1CC2(CCN(c3ncnnc3Oc3ccc(F)cc3C(=O)N(C(C)C)C(C)C)C2)C1 (single isomer, unassigned) [Compound 146, (*S)-2-((5-(2-(6-((3-(dimethylamino)-3-oxopropyl)(methyl)amino)-2-methylhexan-3-yl)-2,6-diazaspiro[3.4]octan-6-yl)-1,2,4-triazin-6-yl)oxy)-5-fluoro-N,N-diisopropylbenzamide fumarate]",0.081,320,1790,440,> 15000,> 30200
"CCN(C(=O)c1cc(F)ccc1Oc1nncnc1N1CCC2(C1)CN([C@H](CCCN(C)CCN(C)C(C)=O)C(C)C)C2)C(C)C [Compound 148, (R)-N-ethyl-5-fluoro-N-isopropyl-2-((5-(2-(2-methyl-6-(methyl(2-(N-methylacetamido)ethyl)amino)hexan-3-yl)-2,6-diazaspiro[3.4]octan-6-yl)-1,2,4-triazin-6-yl)oxy)benzamide fumarate]",0.35,41,340,60,> 15000,12300
"CCN(C)CCC[C@H](C(C)C)N1CC2(CCN(c3ncnnc3Oc3ccc(F)cc3C(=O)N(CC)C(C)C)C2)C1 (single isomer, unassigned) [Compound 132, (*R)—N-ethyl-2-((5-(2-(6-(ethyl(methyl)amino)-2-methylhexan-3-yl)-2,6-diazaspiro[3.4]octan-6-yl)-1,2,4-triazin-6-yl)oxy)-5-fluoro-N-isopropylbenzamide fumarate]",0.11,33,190,15,10400,> 30200
